This note sets out measurements from PubChem BioAssay (NCI).

Each structure is given as a SMILES string.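 All cell lines were grown in 96-well plates and treated with compound for 48 hours. At the GI50, growth is halved. Definition used: TGI = concentration required for complete inhibition of growth.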 Bounds are passed on as bounds.

One assay has as its system SK-MEL-28 melanoma. Put plainly: DTP human tumour cell line panel, 48 h.
For `O=S(=O)(CCn1c(Sc2ccccc2)c(Sc2ccccc2)c2ccccc21)c1ccccc1`, the TGI (usually the concentration giving total growth inhibition) was above 100 µM.

Turning to `O=C(Nc1ccc(Cl)cc1)c1cccc(NC2=C(Cl)C(=O)N(Cc3ccccc3)C2=O)c1`, the GI50 – broadly, the concentration giving 50% growth inhibition – was 25.7 µM and the TGI was above 100 µM.

As for `Nc1ncnc2n[nH]c(Nc3ccc(F)cc3)c12`, the GI50 was 24.1 µM and the TGI amounted to 88.4 µM.

On to `OCC#Cc1ccccc1C#Cc1ccccc1`, for which the GI50 is 19.2 µM and the TGI worked out at 40.4 µM.

Turning to `CCN(CC)c1ccc(-c2cc(-c3cc(OC)c(OC)c(OC)c3)nc(N3CCOCC3)c2C#N)cc1`, the GI50 was 4.78 µM and the TGI was above 63.5 µM.

As to `CC(=O)[C@@]12O[C@@H]1CC1C3CCC4=CC(O)CCC4(C)C3CCC12C` (some centres undefined), the GI50 was 69.4 µM and the TGI was above 100 µM.

For `Cc1cc(/C=C/c2ccc3cc(N(C)C)ccc3[n+]2C)c(C)n1-c1ccccc1`, the GI50 was 0.568 µM and the TGI was found to be 1.53 µM.

Turning to `Cn1cnc([N+](=O)[O-])c1S(=O)(=O)Oc1cccc2ccccc12`, the GI50 was 4.68 µM and the total growth inhibition concentration (TGI) amounted to 14.5 µM.

For `Fc1cc2[nH]ncc2c2c3c(c(-c4cn[nH]c4)nc12)CCCC3`, the GI50 is 1.19 µM and the TGI was found to be 3.88 µM.

As for `O=C1c2cc3c(cc2-c2c1c1ccc(F)cc1c(=O)n2CCCNCCO)OCO3`, the 50% growth inhibitory concentration (GI50) was 0.329 µM and the TGI turned out to be 1.77 µM.

As for `O=C1OC(O)[C@@H]2[C@H]1[C@H]1CC[C@@H]2O1` (some centres undefined), the GI50 was above 58.2 µM and the TGI is above 94 µM.

`COc1cccc(-c2nc(-c3ccc(NC(=O)C(C)C)cc3)[nH]c2-c2ccnc(Br)c2)c1`: the GI50 was 2.78 µM and the TGI was above 100 µM.

Consider `COc1ccc(-c2nnc(COc3ccc(NC(=O)Nc4cc(C(F)(F)F)cc(C(F)(F)F)c4)cc3F)o2)cc1`, for which the GI50 was 2.4 µM and the TGI was determined as 6.85 µM.

On to `COc1ccc(/C=C(/C#N)n2nnc3cccc(F)c32)cc1`, for which the GI50 is 1.92 µM and the TGI was above 100 µM.

For `O=C(CSc1ccc(Cl)cc1)Nc1ccc(-c2nc3ccccc3s2)c(Cl)c1`, the GI50 is 6.31 µM and the TGI was 46.4 µM.

For the compound `COc1ccc(-c2nnc(COc3ccc(C(=O)/C=C/c4ccco4)cc3)o2)cc1`, the GI50 is 2.33 µM and the TGI amounted to 5.41 µM.

Turning to `ClCc1cccc(Cn2cnc3ncnc(Cl)c32)c1`, the GI50 is 1.81 µM and the TGI is 3.52 µM.

As for `O=c1c2sccc2n(CC2COc3ccccc3O2)c(=O)n1O` (centres undefined), the GI50 is 14.5 µM and the TGI is above 100 µM.

A further assay has as its system COLO 205 colon. Put plainly: DTP human tumour cell line panel, 48 h.
Compound `O=S(=O)(CCn1c(Sc2ccccc2)c(Sc2ccccc2)c2ccccc21)c1ccccc1` showed a concentration for total growth inhibition (TGI) above 100 µM.

As for `O=C(Nc1ccc(Cl)cc1)c1cccc(NC2=C(Cl)C(=O)N(Cc3ccccc3)C2=O)c1`, the GI50 is 21.7 µM and the total growth inhibition concentration (TGI) was above 100 µM.

Consider `Nc1ncnc2n[nH]c(Nc3ccc(F)cc3)c12`, for which the GI50 is 17.3 µM and the TGI was found to be 66.1 µM.

`OCC#Cc1ccccc1C#Cc1ccccc1`: the GI50 is 19.6 µM and the TGI came out at 37.6 µM.

Take `CCN(CC)c1ccc(-c2cc(-c3cc(OC)c(OC)c(OC)c3)nc(N3CCOCC3)c2C#N)cc1`: the GI50 is 0.439 µM and the TGI came out at 7.48 µM.

In the case of `CC(=O)[C@@]12O[C@@H]1CC1C3CCC4=CC(O)CCC4(C)C3CCC12C` (some centres undefined), the GI50 was 57.4 µM and the TGI is above 100 µM.

On to `Cc1cc(/C=C/c2ccc3cc(N(C)C)ccc3[n+]2C)c(C)n1-c1ccccc1`, for which the concentration for 50% growth inhibition (GI50) was 0.103 µM and the TGI was 0.213 µM.

As for `Cn1cnc([N+](=O)[O-])c1S(=O)(=O)Oc1cccc2ccccc12`, the GI50 is 1.06 µM and the TGI is 2.64 µM.

For `Fc1cc2[nH]ncc2c2c3c(c(-c4cn[nH]c4)nc12)CCCC3`, the GI50 is 0.658 µM and the TGI amounted to 2.62 µM.

On to `O=C1c2cc3c(cc2-c2c1c1ccc(F)cc1c(=O)n2CCCNCCO)OCO3`, for which the GI50 is 0.0423 µM and the TGI was found to be 0.81 µM.

As to `O=C1OC(O)[C@@H]2[C@H]1[C@H]1CC[C@@H]2O1` (some centres undefined), the GI50 is 1.21 µM and the TGI was 6.31 µM.

Turning to `COc1cccc(-c2nc(-c3ccc(NC(=O)C(C)C)cc3)[nH]c2-c2ccnc(Br)c2)c1`, the GI50 is 2.81 µM and the total growth inhibition concentration (TGI) was 7.59 µM.

As for `COc1ccc(-c2nnc(COc3ccc(NC(=O)Nc4cc(C(F)(F)F)cc(C(F)(F)F)c4)cc3F)o2)cc1`, the GI50 was 1.9 µM and the TGI is 3.3 µM.

Take `COc1ccc(/C=C(/C#N)n2nnc3cccc(F)c32)cc1`: the GI50 was 0.811 µM and the TGI was above 100 µM.

As for `O=C(CSc1ccc(Cl)cc1)Nc1ccc(-c2nc3ccccc3s2)c(Cl)c1`, the GI50 was 2.88 µM and the TGI came out at 9.24 µM.

On to `COc1ccc(-c2nnc(COc3ccc(C(=O)/C=C/c4ccco4)cc3)o2)cc1`, for which the GI50 was 2.23 µM and the TGI was 4.32 µM.

In the case of `ClCc1cccc(Cn2cnc3ncnc(Cl)c32)c1`, the GI50 is 2.61 µM and the TGI is above 100 µM.

`O=c1c2sccc2n(CC2COc3ccccc3O2)c(=O)n1O` (centres undefined): the GI50 is 36.8 µM and the TGI is above 100 µM.

For a further assay, the system named is UACC-62 melanoma. The experiment in a line: DTP human tumour cell line panel, 48 h.
Consider `O=S(=O)(CCn1c(Sc2ccccc2)c(Sc2ccccc2)c2ccccc21)c1ccccc1`, for which the TGI is above 100 µM.

In the case of `O=C(Nc1ccc(Cl)cc1)c1cccc(NC2=C(Cl)C(=O)N(Cc3ccccc3)C2=O)c1`, the GI50 was 11 µM and the TGI came out at 22.9 µM.

As to `Nc1ncnc2n[nH]c(Nc3ccc(F)cc3)c12`, the GI50 was 20.8 µM and the TGI is above 100 µM.

As to `OCC#Cc1ccccc1C#Cc1ccccc1`, the GI50 was 14.8 µM and the TGI is 27.9 µM.

Regarding `CCN(CC)c1ccc(-c2cc(-c3cc(OC)c(OC)c(OC)c3)nc(N3CCOCC3)c2C#N)cc1`, the GI50 is 0.379 µM and the concentration for total growth inhibition (TGI) is 2.55 µM.

Take `CC(=O)[C@@]12O[C@@H]1CC1C3CCC4=CC(O)CCC4(C)C3CCC12C` (some centres undefined): the GI50 is above 100 µM and the TGI was above 100 µM.

As to `Cc1cc(/C=C/c2ccc3cc(N(C)C)ccc3[n+]2C)c(C)n1-c1ccccc1`, the GI50 is 0.277 µM and the TGI worked out at 1.27 µM.

`Cn1cnc([N+](=O)[O-])c1S(=O)(=O)Oc1cccc2ccccc12`: the GI50 was 7.12 µM and the TGI stood at 20.8 µM.

With `Fc1cc2[nH]ncc2c2c3c(c(-c4cn[nH]c4)nc12)CCCC3`, the GI50 was 0.632 µM and the total growth inhibition concentration (TGI) was 2.31 µM.

`O=C1c2cc3c(cc2-c2c1c1ccc(F)cc1c(=O)n2CCCNCCO)OCO3`: the GI50 is 0.0281 µM and the TGI is 0.174 µM.

Regarding `O=C1OC(O)[C@@H]2[C@H]1[C@H]1CC[C@@H]2O1` (some centres undefined), the GI50 is above 100 µM and the TGI was above 100 µM.

As for `COc1cccc(-c2nc(-c3ccc(NC(=O)C(C)C)cc3)[nH]c2-c2ccnc(Br)c2)c1`, the GI50 is 2.57 µM and the TGI is 7.99 µM.

As for `COc1ccc(-c2nnc(COc3ccc(NC(=O)Nc4cc(C(F)(F)F)cc(C(F)(F)F)c4)cc3F)o2)cc1`, the GI50 was 2.11 µM and the TGI was 7.13 µM.

Regarding `COc1ccc(/C=C(/C#N)n2nnc3cccc(F)c32)cc1`, the GI50 was 0.516 µM and the TGI stood at 29.9 µM.

For the compound `O=C(CSc1ccc(Cl)cc1)Nc1ccc(-c2nc3ccccc3s2)c(Cl)c1`, the GI50 was 2.77 µM and the TGI came to 15.1 µM.

With `COc1ccc(-c2nnc(COc3ccc(C(=O)/C=C/c4ccco4)cc3)o2)cc1`, the GI50 is 3.14 µM and the TGI was determined as 11.2 µM.

As for `ClCc1cccc(Cn2cnc3ncnc(Cl)c32)c1`, the GI50 was 2.16 µM and the total growth inhibition concentration (TGI) is 5.39 µM.

On to `O=c1c2sccc2n(CC2COc3ccccc3O2)c(=O)n1O` (centres undefined), for which the GI50 is 14.6 µM and the TGI turned out to be 46.4 µM.

In another assay the test system is NCI-H23 lung. Put plainly: DTP human tumour cell line panel, 48 h.
`O=S(=O)(CCn1c(Sc2ccccc2)c(Sc2ccccc2)c2ccccc21)c1ccccc1` displayed a TGI above 100 µM.

With `O=C(Nc1ccc(Cl)cc1)c1cccc(NC2=C(Cl)C(=O)N(Cc3ccccc3)C2=O)c1`, the GI50 is 4.81 µM and the TGI is 41.2 µM.

`Nc1ncnc2n[nH]c(Nc3ccc(F)cc3)c12`: the GI50 is 67.8 µM and the TGI is above 100 µM.

Turning to `OCC#Cc1ccccc1C#Cc1ccccc1`, the GI50 was 13.7 µM and the concentration for total growth inhibition (TGI) came out at 27.6 µM.

For the compound `CCN(CC)c1ccc(-c2cc(-c3cc(OC)c(OC)c(OC)c3)nc(N3CCOCC3)c2C#N)cc1`, the GI50 was 5.25 µM and the TGI is above 100 µM.

For the compound `CC(=O)[C@@]12O[C@@H]1CC1C3CCC4=CC(O)CCC4(C)C3CCC12C` (some centres undefined), the GI50 was 55.8 µM and the TGI was above 100 µM.

On to `Cc1cc(/C=C/c2ccc3cc(N(C)C)ccc3[n+]2C)c(C)n1-c1ccccc1`, for which the GI50 is 0.082 µM and the TGI is 1.76 µM.

With `Cn1cnc([N+](=O)[O-])c1S(=O)(=O)Oc1cccc2ccccc12`, the GI50 is 10 µM and the TGI was determined as 32.1 µM.

Regarding `Fc1cc2[nH]ncc2c2c3c(c(-c4cn[nH]c4)nc12)CCCC3`, the GI50 was 0.958 µM and the TGI is 4.69 µM.

Regarding `O=C1c2cc3c(cc2-c2c1c1ccc(F)cc1c(=O)n2CCCNCCO)OCO3`, the GI50 was 0.0304 µM and the TGI is 0.147 µM.

As for `O=C1OC(O)[C@@H]2[C@H]1[C@H]1CC[C@@H]2O1` (some centres undefined), the GI50 is above 100 µM and the TGI is above 100 µM.

For the compound `COc1cccc(-c2nc(-c3ccc(NC(=O)C(C)C)cc3)[nH]c2-c2ccnc(Br)c2)c1`, the GI50 was 2.88 µM.

Regarding `COc1ccc(-c2nnc(COc3ccc(NC(=O)Nc4cc(C(F)(F)F)cc(C(F)(F)F)c4)cc3F)o2)cc1`, the GI50 is 1.8 µM and the TGI was found to be 4.38 µM.

Regarding `COc1ccc(/C=C(/C#N)n2nnc3cccc(F)c32)cc1`, the GI50 is 1.23 µM and the TGI amounted to 6.3 µM.

For the compound `O=C(CSc1ccc(Cl)cc1)Nc1ccc(-c2nc3ccccc3s2)c(Cl)c1`, the GI50 was 2.23 µM and the concentration for total growth inhibition (TGI) is 5.56 µM.

`COc1ccc(-c2nnc(COc3ccc(C(=O)/C=C/c4ccco4)cc3)o2)cc1`: the GI50 was 7.02 µM and the TGI was determined as 20.5 µM.

`ClCc1cccc(Cn2cnc3ncnc(Cl)c32)c1`: the GI50 was 1.23 µM and the TGI worked out at 3.38 µM.

Take `O=c1c2sccc2n(CC2COc3ccccc3O2)c(=O)n1O` (centres undefined): the GI50 was 6.88 µM and the TGI was found to be 34.4 µM.
